Assay results published in paper PMC5471452, “Optical control of a receptor-linked guanylyl cyclase using a photoswitchable peptidic hormone” (Chemical Science, 2017).

How the values were obtained:
[1] = test system: pancreatic beta cells in islets of Langerhans; assay: Calcium imaging of beta cells in intact islets of Langerhans; format: cell-based, CD1 mice; conditions: for effect on amplitude of intracellular Ca2+ fluxes in beta cells, in words: intact islets, 8 mM glucose, ANP 0.1–100 nM, TOP271 isomers 1–100 nM, n = 4–6 islets for each concentration
Method: Reversibility could be achieved by applying cis-TOP271 and then illuminating with blue light (λ = 458–482 nm) to induce trans-isomerisation (Fig. 4i and j). Restoration of beta cell function was only partial (Fig. 4j), however, possibly due to cGMP-mediated sequestration of Ca^2+ into internal stores such as the endoplasmic reticulum.[61] […]
CD1 mice were maintained in a specific pathogen-free facility under a 12 h light–dark cycle with ad libitum access to water and food. Animals were euthanized by cervical dislocation and islets isolated using collagenase digestion. Islets were cultured overnight in Roswell Park Memorial Institute (RPMI) medium supplemented with 10% foetal calf serum and 100 U/mL penicillin and 100 µg/mL streptomycin. No randomization was used for animal experimentation, since mice were only used as tissue donors.
Experimental protocols were approved by the University of Birmingham's Animal Welfare and Ethical Review Body (AWERB) and carried out in accordance with the Animals (Scientific Procedures) Act 1986 of the United Kingdom.
Islets were loaded for 40 min with Fluo8 (AAT Bioquest, Sunnyvale, CA, USA), before imaging using a Crest X-Light spinning disk head coupled to a Nikon Ti-E automated base and 10 x/0.4 NA objective. Pulsed excitation was delivered at λ = 458–482 nm (400 ms exposure; 0.33 Hz) via a Lumencor Spectra X Light Engine, and emitted signals detected at λ = 500–550 nm using a Photometrics Evolve Delta 512 EMCCD.
Illumination to induce photoswitching was performed using either continuous exposure to λ = 458–482 nm or λ = 382–407 nm. In all cases, HEPES-bicarbonate buffer was used, containing in mM: 120 NaCl, 4.8 KCl, 24 NaHCO3, 0.5 Na2HPO4, 5 HEPES, 2.5 CaCl2, 1.2 MgCl2, 8 D-glucose. Ca2+ traces were normalized as F/Fmin (F = fluorescence at any given timepoint; Fmin = minimum fluorescence) and relative change in this value over time denoted by a scale bar.
Non-multifactorial comparisons were made using Student’s t-test. Multifactorial comparisons were prepared using one-way ANOVA. Log-transformed concentration-response curves were fitted using non-linear regression and the Hill equation. All analyses were conducted using Graphpad Prism (Graphpad software) and IgorPro (WaveMetrics software), and results deemed significant * at P<0.05 or ** at P<0.01.

[2] = ex vivo or in vivo, depending on cell environment or azoreductase expression; cited from earlier work
Source text: Acting via the NPR-A receptor to generate cGMP, TOP271 allows the reversible photocontrol of contraction/dilation in aortic tissue, as well as Ca^2+ oscillations in rodent islets of Langerhans. Although photodependent cGMP synthesis was described earlier, these approaches rely on the genetically-encoded photosensitive proteins EROS[64],[65] or BeCyclOps,[66],[67] whereas TOP271 allows unprecedented photocontrolled cGMP synthesis in nativ ...

NPR-A = target: T1, NPR-A (Homo sapiens, UniProt P16066); assay: cGMP assay (HTRF) in HEK293T cells transiently transfected with NPR-A; format: cell-based; conditions: in vitro
T1 construct: expressed in transfected cells; host or cells: HEK293t cells (DSMZ #305), transiently co-transfected with pCMV5_GC-A and YFP
T1 sequence (P16066 33-1061): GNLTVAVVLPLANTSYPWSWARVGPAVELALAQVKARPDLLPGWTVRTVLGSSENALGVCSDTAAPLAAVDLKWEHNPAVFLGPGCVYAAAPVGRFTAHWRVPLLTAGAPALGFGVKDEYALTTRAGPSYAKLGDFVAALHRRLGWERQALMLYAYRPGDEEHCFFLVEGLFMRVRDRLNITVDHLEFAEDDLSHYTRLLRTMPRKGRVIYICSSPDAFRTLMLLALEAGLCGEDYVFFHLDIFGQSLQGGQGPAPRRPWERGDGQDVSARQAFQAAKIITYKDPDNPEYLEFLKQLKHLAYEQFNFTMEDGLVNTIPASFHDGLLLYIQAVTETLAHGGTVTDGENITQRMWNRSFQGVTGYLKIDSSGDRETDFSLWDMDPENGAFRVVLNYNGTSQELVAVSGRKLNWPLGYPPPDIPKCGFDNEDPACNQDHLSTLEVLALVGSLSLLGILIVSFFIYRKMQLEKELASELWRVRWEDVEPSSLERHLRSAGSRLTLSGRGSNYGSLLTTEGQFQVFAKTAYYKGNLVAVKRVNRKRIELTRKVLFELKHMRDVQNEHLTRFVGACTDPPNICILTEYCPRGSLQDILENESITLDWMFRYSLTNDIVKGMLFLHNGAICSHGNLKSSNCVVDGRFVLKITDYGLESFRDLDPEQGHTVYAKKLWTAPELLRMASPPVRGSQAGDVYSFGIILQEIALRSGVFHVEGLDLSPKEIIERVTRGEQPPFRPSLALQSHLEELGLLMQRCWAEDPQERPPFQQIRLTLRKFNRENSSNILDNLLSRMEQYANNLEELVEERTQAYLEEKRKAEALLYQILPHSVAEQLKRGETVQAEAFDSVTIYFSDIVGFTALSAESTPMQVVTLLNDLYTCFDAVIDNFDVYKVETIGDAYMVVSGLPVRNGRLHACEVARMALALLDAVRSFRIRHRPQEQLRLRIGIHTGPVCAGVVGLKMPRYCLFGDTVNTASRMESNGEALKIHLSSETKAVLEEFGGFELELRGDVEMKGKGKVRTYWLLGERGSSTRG
Method: To test cGMP synthesis, each peptide was applied as the trans- or cis-isomer by keeping them either in the dark or pre-illuminating with UV light (λ = 365 nm) for 15 minutes, respectively.
cGMP assay in transiently transfected HEK293t cells
HEK293t cells (obtained from the Leibniz-Institute DSMZ, Braunschweig, Germany, #305, regularly mycoplasma tested) were transfected with pCMV5_GC-A 4 and YFP using Lipofectamine 2000® (Life Science, Indianapolis, IN, USA) at >80% confluency in a T25 flask according to the manufacturer’s instructions. After 24 h, cells were checked by means of YFP fluorescence for successful transfection (>70% efficiency), washed once and harvested with 1 mL Hepes-Krebs-Ringer (HKR) buffer (containing in mM: 135 NaCl, 5 KCl, 1 MgSO4, 0.4 K2HPO4, 5.5 D-glucose, 20 HEPES, 1 CaCl2, pH = 7.4) supplemented with PDE inhibitors IBMX (500 µM, Tocris, Bristol, UK, #2840) and Ro
µL of cell solution was pipetted into each well of a 384-well plate (white, flat bottom, Greiner, Frickenhausen, Germany). […] The resulting assays were incubated for 30 min before they were lysed and treated with a cGMP HTRF kit (Cisbio, Codolet, France) according to the manufacturer’s instructions. cGMP levels were read with a Omega platereader (BMG Labtech, Offenburg, Germany) after 1 h of incubation time and normalized according to the cGMP standards. […]

[3] = test system: murine thoracic aortic rings; assay: Aortic tensometry, pre-constricted aortic rings; parameters: species or system C57BL/6 mice; conditions: for vasodilation of pre-constricted aortic rings, in words: rings pre-contracted with 1 µM phenylephrine, 200 μM L-NAME and 3 μM diclofenac present, n = 6 aortic rings from 4 animals
Method: We next sought to address whether TOP271 would allow the optical control of cGMP-dependent processes in a physiologically relevant system, i.e. the aortic ring preparation. […] Accordingly, we predicted that TOP271 would allow reversible, light-controlled vasoactive responses, with cis-TOP271 being the stronger effector at specific concentrations. […] Although this concentration–response indicated a significant difference in receptor activation for 100 nM TOP271, we decided to use 400 nM TOP271 to trigger a stronger isomer-dependent vasodilation.
Fig. 3 TOP271 allows photocontrol of aortic tissue. (a) Concentration-response curves for trans- and cis-TOP271. (b) Aortic relaxation for cycles in (d) and (e). […] (d, e) Reversible photocontrol over aortic tension by application of trans-TOP271 (d) and cis-TOP271 (e) with UV-/blue and blue/UV-light (365 and 460 nm) cycles, respectively. All experiments were conducted in the presence of 200 μM N-ω-nitro-L-arginine methyl ester (L-NAME) and 3 μM diclofenac, which were used to block the vascular relaxants nitric oxide and prostacyclin, respectively. PE = phenylephrine was used for initial vasoconstriction, IBMX = 3-iso-butyl-1-methylxanthine was used to induce complete muscular relaxation as an end point control. (n = 6 aortic rings from 4 animals) (*P < 0.05, **P < 0.01, repeated measures Student's t-test). Values represent the mean ± SEM. […]
Murine thoracic aortic rings were mounted in a myograph as described recently16. In detail, thoracic aortas from C57BL/6 mice were explanted and cut into rings and mounted on fixed segment support pins in two four-chamber Myograph 610 (Danish Myo Technology, Aarhus, Denmark) containing 5 ml of Krebs–Henseleit solution (containing […]
glucose, pH 7.4), bubbled with 95% O2 and 5% CO2. Resting tension was set to 5 mN in the presence of Diclofenac (3 µM) and N-nitro-L-arginine methyl ester (L-NAME) (200 µM). After equilibration (45 minutes at 37 °C), rings were pre-contracted with 1 µM phenylephrine (PE). Since aortic ring myography is sensitive to temperature fluctuations, effects of direct and indirect illumination on vasoactivity were determined. […] The vasorelaxing effects of pre-illuminated cis- and dark trans-TOP271 were assessed once a steady plateau was reached. […]
were prepared (10 mM in water), of which an aliquot of TOP271 was either pre-illuminated at λ = 365 nm using a UVP 3UV benchtop UV lamp to obtain the cis-isomer, or kept in the dark to maintain the trans-isomer. […] Read-out was conducted in between illumination cycles as soon as a steady plateau was reached to exclude any light dilational effects. […]

[4] = in benzene at 0 °C; cited from earlier work
Method: As expected for an electron-poor azobenzene, all peptides were bistable (TOP271 Fig. 2c, TOP263-270 ESI Fig. 3 ^†). ^¶ ¶All peptides are available for academic use from the Hoffmann-Röder lab upon request. This advantageous trait allows samples to be pre-illuminated prior to application rather than needing constant illumination. […], and because the compounds were bistable, the initial back-relaxation was obtained as a linear function from the first 30 min after ceasing illumination. P ...

SMILES: CC[C@H](C)[C@@H]1NC(=O)[C@H](CCCNC(=N)N)NC(=O)[C@H](CC(=O)O)NC(=O)[C@H](CCSC)NC(=O)[C@H](CCCNC(=N)N)NC(=O)CNC(=O)CNC(=O)[C@H](Cc2ccccc2)NC(=O)[C@@H](NC(=O)[C@H](CO)NC(=O)[C@H](CO)NC(=O)[C@H](CCCNC(=N)N)NC(=O)[C@H](CCCNC(=N)N)NC(=O)[C@H](CC(C)C)NC(=O)[C@@H](N)CO)CSSC[C@@H](C(=O)N[C@@H](CC(N)=O)C(=O)N[C@@H](CO)C(=O)N[C@@H](Cc2ccccc2)C(=O)N[C@@H](CCCNC(=N)N)C(=O)N[C@@H](Cc2ccc(O)cc2)C(=O)O)NC(=O)CNC(=O)[C@H](CC(C)C)NC(=O)CNC(=O)[C@H](CO)NC(=O)[C@H](CCC(N)=O)NC(=O)[C@H](C)NC(=O)CNC1=O [ANP, human atrial natriuretic peptide, reference compound]
- effect on amplitude of intracellular Ca2+ fluxes in beta cells, in words [1]: suppressed beta cell function
- pancreatic beta cell Ca2+ spiking frequency ([1]; low (0.1 nm) but not high (10 nm) concentration, n = 5-7 islets for each concentration): stimulate increases

SMILES: CCN(CC)c1ccc(/N=N/c2ccc(S(=O)(=O)NC(=O)NC3CCCCC3)cc2)cc1 [JB253]
- degradation of the diazene unit [2]: not the case

SMILES: CC[C@H](C)[C@@H]1NC(=O)[C@H](CCCNC(=N)N)NC(=O)[C@H](CC(=O)O)NC(=O)[C@H](CCSC)NC(=O)[C@H](CCCNC(=N)N)NC(=O)CNC(=O)CNC(=O)[C@H](Cc2ccccc2)NC(=O)[C@@H](NC(=O)[C@H](CO)NC(=O)[C@H](CO)NC(=O)[C@H](CCCNC(=N)N)NC(=O)[C@H](CCCNC(=N)N)NC(=O)[C@H](CC(C)C)NC(=O)[C@@H](N)CO)CSSC[C@@H](C(=O)N[C@@H](CC(N)=O)C(=O)N[C@@H](CO)C(=O)N[C@@H](Cc2ccccc2)C(=O)N[C@@H](CCCNC(=N)N)C(=O)N[C@@H](Cc2ccc(O)cc2)C(=O)O)NC(=O)Cc2cccc(c2)/N=N\c2cccc(c2)CNC(=O)[C@H](CCC(N)=O)NC(=O)[C@H](C)NC(=O)CNC1=O [cis-TOP271]
- fold higher potency of cis- over trans-isomer for cGMP generation (NPR-A): 4 fold
- speed of the initial vasodilation, cis- compared to trans-TOP271 ([3]; 400 nM, aortic rings): 1.5 ×
- vasodilation of pre-constricted aortic rings, in words ([3]; 400 nM): potent vasodilation
- vasodilation concentration-response, cis- versus trans-isomer ([3]; pre-illuminated isomers, 100 nM to 1 μM range, pre-constricted aortic rings): increased potency
- restoration of beta cell function after blue light (458–482 nm) trans-isomerisation ([1]; cis-TOP271 applied, then blue light, n = 5 islets): only partial
- effect on amplitude of intracellular Ca2+ fluxes in beta cells, in words [1]: robustly suppressed Ca^2+ rises

SMILES: CC[C@H](C)[C@@H]1NC(=O)[C@H](CCCNC(=N)N)NC(=O)[C@H](CC(=O)O)NC(=O)[C@H](CCSC)NC(=O)[C@H](CCCNC(=N)N)NC(=O)CNC(=O)CNC(=O)[C@H](Cc2ccccc2)NC(=O)[C@@H](NC(=O)[C@H](CO)NC(=O)[C@H](CO)NC(=O)[C@H](CCCNC(=N)N)NC(=O)[C@H](CCCNC(=N)N)NC(=O)[C@H](CC(C)C)NC(=O)[C@@H](N)CO)CSSC[C@@H](C(=O)N[C@@H](CC(N)=O)C(=O)N[C@@H](CO)C(=O)N[C@@H](Cc2ccccc2)C(=O)N[C@@H](CCCNC(=N)N)C(=O)N[C@@H](Cc2ccc(O)cc2)C(=O)O)NC(=O)Cc2cccc(c2)/N=N/c2cccc(c2)CNC(=O)[C@H](CCC(N)=O)NC(=O)[C@H](C)NC(=O)CNC1=O [trans-TOP271]
- vasodilation of pre-constricted aortic rings, in words ([3]; 400 nM): strong vasodilation
- effect on amplitude of intracellular Ca2+ fluxes in beta cells, in words [1]: only a small decrease

SMILES: c1ccc(/N=N/c2ccccc2)cc1 [unsubstituted azobenzene, azobenzene]
- k obs thermal relaxation [4]: 3.58 × 10^–4 a.u. min^–1
